Measured values as given in PMC8001472, “Novel Selective IDO1 Inhibitors with Isoxazolo[5,4-d]pyrimidin-4(5H)-one Scaffold” (Pharmaceuticals, 2021).

Key:
[1] = target: T1, IDO1 (Homo sapiens, UniProt P14902); experiment: Cell-based IDO1 inhibitory assay on IFN-γ treated HeLa cells; design: endogenous in cells; host or cells: HeLa cells treated with human IFN-γ
Method: (§1) All active compounds were additionally evaluated on a cellular level, starting with the determination of cytotoxicity on Hep G2 cell line using the MTS assay (Figure 3), where inner salt of [3-(4,5-dimethylthiazol-2-yl)-5-(3-carboxymethoxyphenyl)-2-(4-sulfophenyl)-2H-tetrazolium is converted to formazan product, its quantity is directly proportional to the number of living cells. Since the majority of compounds were only partially soluble in a cell medium at concentrations above 100 μM, their effect on cell viability was measured at 50 μM, 10 μM, and 1 μM. […] Taken together, the results obtained from cellular tests reminded us of the necessity to consider the physicochemical properties of compounds even at the early stages of design.
HeLa cells were seeded in 96-well plates (2 × 10^4 cells/well) and maintained in Dulbecco’s modified Eagle’s medium, supplemented with 10% fetal bovine serum (both from Thermo Fisher Scientific, Waltham, MA, USA) and 100 µg/mL gentamicin (Sigma-Aldrich, St. Louis, MO, USA). Following overnight incubation in a humidified chamber at 37 °C and 5% CO2 cells were treated with human IFN-γ (50 ng/mL final concentration). […] The absorbance (λABS = 480 nm) of the yellow color derivate formed after 10 min was measured using a microplate reader (Synergy H4; BioTek Instruments, Inc., Winooski, VT, USA).
Target sequence in this assay (P14902 whole entry): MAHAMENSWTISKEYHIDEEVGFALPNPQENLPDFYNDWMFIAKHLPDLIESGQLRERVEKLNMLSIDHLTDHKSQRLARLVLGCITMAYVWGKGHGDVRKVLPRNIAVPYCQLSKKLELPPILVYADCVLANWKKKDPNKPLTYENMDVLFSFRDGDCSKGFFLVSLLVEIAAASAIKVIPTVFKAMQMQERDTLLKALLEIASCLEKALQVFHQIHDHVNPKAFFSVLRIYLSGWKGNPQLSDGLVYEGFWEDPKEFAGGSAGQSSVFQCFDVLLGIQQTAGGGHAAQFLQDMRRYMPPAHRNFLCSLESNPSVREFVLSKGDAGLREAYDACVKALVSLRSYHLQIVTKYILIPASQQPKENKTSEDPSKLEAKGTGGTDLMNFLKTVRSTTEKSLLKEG

[2] = target: T1, IDO1; experiment: hIDO1 inhibitory potency evaluation (fluorescence assay, NFK-derived fluorophore); assay type: biochemical; design: gene encoding human IDO1 residues 6-403 His-tagged at the N-terminus; His tag (N); made in house; host or cells: Escherichia coli NiCo21
Target sequence in this assay (P14902 6-403): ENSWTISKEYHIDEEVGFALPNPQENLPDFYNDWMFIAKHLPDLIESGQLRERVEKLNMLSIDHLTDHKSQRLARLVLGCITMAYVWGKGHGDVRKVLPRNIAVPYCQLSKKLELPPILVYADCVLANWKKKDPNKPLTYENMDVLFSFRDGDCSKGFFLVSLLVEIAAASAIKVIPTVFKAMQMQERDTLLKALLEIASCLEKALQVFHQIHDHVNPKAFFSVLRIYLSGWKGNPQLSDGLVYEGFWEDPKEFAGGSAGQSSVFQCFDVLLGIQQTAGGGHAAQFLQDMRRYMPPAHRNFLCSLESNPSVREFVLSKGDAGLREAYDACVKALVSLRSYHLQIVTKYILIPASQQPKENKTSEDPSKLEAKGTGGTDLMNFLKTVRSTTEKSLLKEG

[3] = target: T2, hTDO (Homo sapiens, UniProt P48775); experiment: hTDO inhibitory potency evaluation (fluorescence assay); assay type: biochemical
T2 construct: purchased Vinci-Biochem
T2 sequence (P48775 whole entry): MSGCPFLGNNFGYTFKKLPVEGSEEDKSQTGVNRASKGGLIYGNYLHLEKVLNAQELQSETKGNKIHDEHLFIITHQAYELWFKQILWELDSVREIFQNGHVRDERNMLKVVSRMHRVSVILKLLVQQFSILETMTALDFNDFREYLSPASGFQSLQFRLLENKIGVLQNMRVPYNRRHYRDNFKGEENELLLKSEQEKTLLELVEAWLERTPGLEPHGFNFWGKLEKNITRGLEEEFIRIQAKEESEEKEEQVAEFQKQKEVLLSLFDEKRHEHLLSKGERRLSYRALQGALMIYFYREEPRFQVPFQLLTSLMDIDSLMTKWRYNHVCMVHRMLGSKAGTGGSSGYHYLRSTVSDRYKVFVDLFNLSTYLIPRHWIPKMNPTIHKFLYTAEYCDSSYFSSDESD
Method: Additionally, to determine IDO1 selectivity, all final compounds were assayed for their inhibitory potencies towards hIDO2 and hTDO. For this purpose, two new protocols were developed based on the published fluorescence assay for hIDO1 [25]. Sodium ascorbate, methylene blue, and bovine catalase were used in the same concentrations as for hIDO1. 50 mM phosphate buffers with pH values of 7.5 and 7.0 were used for hIDO2 and hTDO, respectively, as has been already mentioned before. First, the activities of hIDO2 and hTDO were determined at four different concentrations. […] Additionally, the effect of DMSO concentration on enzyme activity was investigated. […] The optimal hIDO2 and hTDO assay concentrations of the substrate L-Trp were determined to be 4 mM and 500 μM, respectively.
The activity of the compounds on hTDO was determined according to the previously reported fluorescence protocol for hIDO1 [25] and reported absorbance protocols for hTDO [30] with several modifications. Recombinant hTDO was purchased from Vinci-Biochem (Vinci-Biochem, Vinci, Italy), bovine catalase was purchased from Sigma-Aldrich (Sigma-Aldrich, St. Louis, MO, USA). Prior to the measurement of activity for compounds, the enzyme activity was determined, and optimal assay enzyme concentration was selected. The amounts of reagents needed to perform the assay were optimized. Briefly, the reagents needed were dissolved in 50 mM potassium phosphate buffer (pH 7.0, 0.01%, v/v Tween 20), the reaction was performed in black 384-well microplates. After the addition of 1 μL of 100 mM sodium ascorbate neutralized with equimolar amount of 1 M NaOH, 1 μL of 100 μM methylene blue, 1 μL of 1 mg/mL bovine catalase, 0.5 μL of DMSO (negative control) or solution of a compound, 5 μL of 300 nM hTDO and 1.5 μL of 3.3 mM L-Trp were added and the microplate was incubated for 60 min at 37 °C. The reaction was quenched with the addition of 10 μL of 400 mM piperidine solution in MilliQ water and the formation of the examined fluorophore began following incubation at 65 °C for 20 min. The production of NFK-derived fluorophore (λEX = 400 nm, λEM = 500 nm) was measured using a microplate reader (Synergy H4; BioTek Instruments, Inc., Winooski, VT, USA) after 60 min post-incubation at room temperature. In the preliminary testing compounds were tested at 100 μM with activities determined as residual activities—RA, which were calculated to% of inhibition, presented in Table 1 and Table 2 (% of inhibition = 100% − RA). All determinations were carried out in duplicates.

[4] = tested on: Hep G2 cell line; experiment: Cytotoxicity, MTS cell proliferation assay; assay type: cell-based; conditions: Hep G2 cells
Method: as §1
Cytotoxicity of the compounds was determined on HepG2 cell line using the MTS cell proliferation assay (CellTiter 96 AQueous One Solution Cell Proliferation Assay, Promega, Madison, WI, USA). The cells were seeded in 96-well plates (3 × 10^4 cells/well) and maintained in Dulbecco’s Modified Eagle’s Medium, supplemented with 10% fetal bovine serum (both from Thermo Fisher Scientific, Waltham, MA, USA) and 100 µg/mL gentamicin (Sigma-Aldrich, St. Louis, MO, USA). Following overnight incubation in a humidified chamber at 37 °C and 5% CO2 cells were treated with the compounds of interest at final concentrations of 1 µM, 10 µM, 50 µM, 100 µM, 150 µM, and 200 µM. After 24h incubation under the same conditions, 100 µL of the medium from each well were collected and mixed with 10 µL of MTS solution. Following 3h incubation, the absorbance (λABS = 490 nm) was measured using a microplate reader (Synergy H4; BioTek Instruments, Inc., Winooski, VT, USA). The results are expressed as means of triplicates ± standard deviation of three independent experiments.

melting point: 225 to 227 °C | cell-based IDO1 inhibition [1]: no activity was detected | hIDO1 inhibition (in words) [2]: low micromolar range | IC50 ([2]; recombinant hIDO1, mean ± SD of at least two independent determinations, read-out: IDO1 IC50): 23 µM | hTDO inhibition (in words) [3]: no activity
Structure (SMILES): O=C(Cn1cnc2onc(-c3ccc(F)cc3)c2c1=O)Nc1ccc(C(F)(F)F)cc1 [Compound 23]
cytotoxicity profile [4]: satisfying cytotoxicity profile
